The source of these data is patent EP0361954A2, “CRF Analogs” (THE SALK INSTITUTE FOR BIOLOGICAL STUDIES, priority 1988, dated 1990).

Non-standard residues stand in square brackets, D forms with d. Nle = CCCC[C@H](N)C(=O)O; Nva = CCC[C@H](N)C(=O)O

A short description of assay [1]: In vivo testing (general procedure of C. Rivier et al., Science, 218, 377 (1982)): duration of potency and blood pressure. The conditions noted are these: general procedure of Example III. On the procedure:
(§1) The synthetic peptide [D-Glu²⁰]-oCRF is examined for its effects on the secretion of ACTH and β-endorphin in vitro and was also in vivo. The potency of synthetic [D-Glu²⁰]-oCRF to stimulate the secretion of ACTH and β-endorphin by cultured rat pituitary cells is measured using the procedure as generally set forth in Endocrinology, 91, 562 (1972) and compared against synthetic oCRF. […] In vivo testing is carried out using the general procedure set forth in C.

Assay [2] has as its system cultured rat pituitary cells. The assay is described as follows: Secretion of ACTH and β-endorphin by cultured rat pituitary cells (procedure of Endocrinology, 91, 562 (1972)). It counts as cell-based. As to conditions: testing by the general procedure of Example III. On the procedure: as §1

As to “H-SQEPPISLDLTFHLLRE[Nle]L[dE][Nle]AKAEQEAEQA[dH]LNRLLLEEA-NH2 [[Nle^18,21, D-Glu²⁰, D-His³²]-AHC]”, the “lowering of blood pressure” value in assay [1] is recorded as “very significant lowering of blood pressure”. In assay [2], the “stimulation of the secretion of ACTH and β-END-LI” value (“stimulation” for short) is “stimulates the secretion of ACTH and β-END-LI”.
On to “H-SQEPPISLDLTFHLREVL[dE][Nle]TKADQLAQQAHSNRKLLDIA-NH2 [[D-Glu²⁰, Nle²¹]-oCRF]”, for which the “lowering of blood pressure” value in assay [1] is given as “very significant lowering of blood pressure”. In addition, the “stimulation” value in assay [2] was “stimulates the secretion of ACTH and β-END-LI”.
For “H-SQEPPISLDLT[dF]ELLREMLEIAKAEQEAEQAALNRKYLEEV-NH2”, in assay [1], the “lowering of blood pressure” value is “very significant lowering of blood pressure”. Also, the “stimulation” value in assay [2] is “stimulates the secretion of ACTH and β-END-LI”.
In the case of “H-SQEPPISLDLT[dF]HLLREML[dE]RAKAEQEAEQAALNRLLLEEA-NH2 [[D-Phe¹², D-Glu²⁰, Arg²¹]-AHC]”, the “lowering of blood pressure” value in assay [1] is reported as “very significant lowering of blood pressure”. For the same substance, the “stimulation” value in assay [2] is “stimulates the secretion of ACTH and β-END-LI”.
Regarding “H-SQEPPISLDLT[dF]HLLRE[Nle]LE[Nle]AK[dA]EQEAEQAALNRLLLEEA-NH2 [[D-Phe¹², Nle^18,21, D-Ala²⁴]-AHC]”, the “lowering of blood pressure” value in assay [1] was “very significant lowering of blood pressure”. Moreover, in assay [2], the “stimulation” value was “stimulates the secretion of ACTH and β-END-LI”.
Turning to “H-SQE[dP]PISLDLT[dF]HLLRE[Nle]LE[Nle]AKAEQEAEQAAINRNLLEEA-NH2”, the “lowering of blood pressure” value in assay [1] is “very significant lowering of blood pressure”. Moreover, in assay [2], the “stimulation” value was “stimulates the secretion of ACTH and β-END-LI”.
With “H-SQ[dY]PPISLDLTFHLLRE[Nle]L[dE][Nva]AK[dA]EQEAEQAALNRLLLEEA-NH2”, the “lowering of blood pressure” value in assay [1] was “very significant lowering of blood pressure”. For the same substance, in assay [2], the “stimulation” value is “stimulates the secretion of ACTH and β-END-LI”.
On to “H-Ser-Gln-GluU-Pro-Pro-Ile-Ser-Leu-Asp-Leu-Thr-D-Phe-His-Leu-Leu-Arg-Glu-Val-Leu-Glu-Nle-Thr-Lys-Ala-Asp-Gln-Leu-Ala-Gln-Gln-Ala-His-Ser-Asn-Arg-Lys-Leu-Leu-Asp-Ile-Ala-NH₂ [[D-phe¹², Nle²¹ -oCRF]”, for which the “lowering of blood pressure” value in assay [1] was “very significant lowering of blood pressure”. Besides, the “stimulation” value in assay [2] was “stimulates the secretion of ACTH and β-END-LI”.
For “H-Ser-Glu-Glu-pro-pro-lle-Ser-Leu-Asp-Leu-Thr-D-Phe-Glu-Leu-Leu-Arg-Glu-Nle-Leu-Glu-Met-Glu-Orn-Ala-Glu-Lys-Glu-Ala-Glu-Gln-Ala-Ala-Leu-Asn-Arg-Leu-Leu-Leu-Glu-Glu-Ala-NH₂ [[Glu^2,13,22 D-Phe¹², Nle¹⁸, Orn²³]-AHC]”, the “lowering of blood pressure” value in assay [1] was “very significant lowering of blood pressure”. In addition, in assay [2], the “stimulation” value is “stimulates the secretion of ACTH and β-END-LI”.
